Test results from US20220249347A1, “Composition and Method Containing Pea and Quinoa Natural Peptides And Niacinamide to Enhance Skin Glow, Radiance And Even Skin Tone” (TRI-K Industries, Inc., priority 2021, published 2022).

Test system: RHE-MEL 3D in vitro Caucasian skin model
Assay: Skin pigmentation (ITA°) on melanized reconstructed human epidermis 3D model RHE-MEL
Assay type: cell-based
Details: 14 days study, treated daily for 10 days; Skin Care Composition at 1%, niacinamide at same use level; versus untreated
Protocol: The protocol for this study including the following. A melanized reconstructed human epidermis 3D Model (RHE-MEL) (in vitro Caucasian skin model) was used. The study duration was for 14 days. The RHE-MEL 3D in vitro skin tissues were allowed to grow in the first 4 days. The 3D skin tissues were treated every day with the materials for 10 days. The following samples were used: Untreated sample, Benchmark Niacinamide (at same use level as in Skin Care Composition), and Skin Care Composition used at 1%. Concentrations of materials were predetermined based on screening MTT assay. A C-Cube Dermoscope® (a high quality magnifying lens and a powerful lighting system used to evaluate pigmented skin lesions, and can diagnose melanoma), was used coupled with C-Cube clinical software for image analysis. Skin pigmentation was analyzed via high resolution pictures obtained from the C-Cube Dermoscope® coupled with an image analysis software. ITA° parameter was measured as degree of pigmentation of the skin directly on in vitro 3D RHE-MEL skin model. Statistical analysis was done using the Student T-test with a confidence level of (p<0.05).
In this 3D RHE-MEL in vitro Caucasian model skin measured was the intensity of the skin pigmentation degree by ITA° parameter (individual typological angle). […]

## NC(=O)c1cccnc1 [Niacinamide]
  ITA° (individual typology angle), degree of skin pigmentation: increased the ITA°
